Data from ChEMBL document CHEMBL1201862, “PubChem BioAssay data set” (2004).
Values belong to the compound of their own block, whether it stands above or below them. Activity calls are given as the source filed them.

Legend:
[1] = NIH3T3 cell viability loss – ATP luminescence, mouse fibroblasts, counter-screen, dose response (AID 2010); assay type: functional, cell-based;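 further: cells exposed to compound for about 90 hours before reading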
[2] = Trypanosoma cruzi growth suppression in host cells – NIH3T3 host cells, beta-gal luminescence, confirmation (AID 2044); assay type: functional, cell-based;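 further: intracellular parasites grown in NIH/3T3 mouse fibroblasts as host cells; luminescent beta-galactosidase reporter signal from transgenic T. cruzi replicating inside host cells; inhibitors lower the luminescence signal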
[3] = Luminescence Cell-Based Dose Retest to Confirm Inhibitors of Cancer Stem Cells. [Related pubchem assays (depositor defined):AID2717, AID2721]; assay type: functional; conditions: Homo sapiens
Cytochrome P450 1A2 = target: T1, Cytochrome P450 1A2 (Homo sapiens, UniProt P05177);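 further: PubChem cytochrome P450 panel assay, CYP1A2 panel member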
T1 sequence (P05177 whole entry): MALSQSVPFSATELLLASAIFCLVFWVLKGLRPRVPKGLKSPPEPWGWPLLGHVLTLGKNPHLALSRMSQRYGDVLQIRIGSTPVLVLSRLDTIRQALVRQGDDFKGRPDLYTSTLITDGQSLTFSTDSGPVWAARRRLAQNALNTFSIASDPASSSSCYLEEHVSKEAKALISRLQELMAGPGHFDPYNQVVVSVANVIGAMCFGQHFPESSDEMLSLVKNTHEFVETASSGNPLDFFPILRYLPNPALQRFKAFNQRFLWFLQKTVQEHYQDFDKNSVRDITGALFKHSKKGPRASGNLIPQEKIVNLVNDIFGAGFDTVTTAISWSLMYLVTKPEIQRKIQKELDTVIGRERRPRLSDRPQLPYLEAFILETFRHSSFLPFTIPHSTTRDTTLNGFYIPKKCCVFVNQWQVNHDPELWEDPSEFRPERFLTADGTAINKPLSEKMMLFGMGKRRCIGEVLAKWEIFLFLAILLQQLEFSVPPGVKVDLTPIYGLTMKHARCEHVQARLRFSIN

Cytochrome P450 2C9 = Cytochrome P450 2C9 (Homo sapiens, UniProt P11712)
Cytochrome P450 2C9, sequence (P11712 whole entry, the tested form may be a part): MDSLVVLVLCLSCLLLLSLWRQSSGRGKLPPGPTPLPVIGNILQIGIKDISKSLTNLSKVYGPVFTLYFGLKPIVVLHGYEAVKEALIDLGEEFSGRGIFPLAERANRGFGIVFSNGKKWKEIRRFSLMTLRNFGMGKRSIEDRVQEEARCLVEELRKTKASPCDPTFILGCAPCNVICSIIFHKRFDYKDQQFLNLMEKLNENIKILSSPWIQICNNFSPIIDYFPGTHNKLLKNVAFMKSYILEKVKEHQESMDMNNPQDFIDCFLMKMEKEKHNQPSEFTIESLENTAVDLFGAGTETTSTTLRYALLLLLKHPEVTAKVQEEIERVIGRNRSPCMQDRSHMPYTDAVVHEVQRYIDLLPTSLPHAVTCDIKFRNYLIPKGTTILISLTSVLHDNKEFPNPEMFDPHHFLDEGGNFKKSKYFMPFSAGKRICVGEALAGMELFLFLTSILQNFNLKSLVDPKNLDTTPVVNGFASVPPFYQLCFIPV

[4] = target: T2, RNA-binding protein pos-1 (Caenorhabditis elegans, UniProt G5EF15); test: disruptors of C. elegans POS-1 RNA interaction – biochemical, fluorescence polarization, dose response (AID 1964);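 further: purified POS-1 fused to maltose binding protein made in E. coli; potency of compounds blocking POS-1 binding to fluorescent RNA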
T2 sequence (G5EF15 whole entry): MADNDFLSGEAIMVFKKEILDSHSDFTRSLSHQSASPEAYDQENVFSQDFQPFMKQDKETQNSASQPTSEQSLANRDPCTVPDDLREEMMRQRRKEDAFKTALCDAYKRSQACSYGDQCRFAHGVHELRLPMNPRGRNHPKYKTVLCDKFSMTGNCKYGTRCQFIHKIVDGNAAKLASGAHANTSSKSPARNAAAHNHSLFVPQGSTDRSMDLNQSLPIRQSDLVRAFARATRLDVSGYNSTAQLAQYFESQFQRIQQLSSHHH

[5] = target: T3, Zinc finger protein mex-5 (Caenorhabditis elegans, UniProt Q9XUB2); test: potency of MEX-5 RNA-binding blockers – biochemical, C. elegans, fluorescence polarization, dose response (AID 1960)
T3 sequence (Q9XUB2 whole entry): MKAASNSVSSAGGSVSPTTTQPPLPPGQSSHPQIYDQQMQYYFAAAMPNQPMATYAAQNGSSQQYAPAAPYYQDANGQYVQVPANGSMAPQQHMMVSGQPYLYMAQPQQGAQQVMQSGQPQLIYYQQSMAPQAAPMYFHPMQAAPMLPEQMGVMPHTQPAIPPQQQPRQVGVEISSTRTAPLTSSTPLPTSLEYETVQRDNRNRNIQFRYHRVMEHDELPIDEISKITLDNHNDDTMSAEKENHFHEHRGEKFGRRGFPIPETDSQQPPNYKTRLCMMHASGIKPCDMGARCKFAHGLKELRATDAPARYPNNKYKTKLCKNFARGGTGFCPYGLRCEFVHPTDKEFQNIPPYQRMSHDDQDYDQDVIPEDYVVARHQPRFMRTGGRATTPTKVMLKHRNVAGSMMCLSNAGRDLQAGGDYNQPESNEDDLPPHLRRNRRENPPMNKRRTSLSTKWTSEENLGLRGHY

[6] = target: T4, Rac GTPase-activating protein 1 (Homo sapiens, UniProt Q9H0H5); test: blockers of MgcRacGAP-driven Rac1 GTP hydrolysis – biochemical, ADP Hunter fluorescence, primary and confirmatory, confirmation (AID 624330); assay type: functional
T4 sequence (Q9H0H5 whole entry): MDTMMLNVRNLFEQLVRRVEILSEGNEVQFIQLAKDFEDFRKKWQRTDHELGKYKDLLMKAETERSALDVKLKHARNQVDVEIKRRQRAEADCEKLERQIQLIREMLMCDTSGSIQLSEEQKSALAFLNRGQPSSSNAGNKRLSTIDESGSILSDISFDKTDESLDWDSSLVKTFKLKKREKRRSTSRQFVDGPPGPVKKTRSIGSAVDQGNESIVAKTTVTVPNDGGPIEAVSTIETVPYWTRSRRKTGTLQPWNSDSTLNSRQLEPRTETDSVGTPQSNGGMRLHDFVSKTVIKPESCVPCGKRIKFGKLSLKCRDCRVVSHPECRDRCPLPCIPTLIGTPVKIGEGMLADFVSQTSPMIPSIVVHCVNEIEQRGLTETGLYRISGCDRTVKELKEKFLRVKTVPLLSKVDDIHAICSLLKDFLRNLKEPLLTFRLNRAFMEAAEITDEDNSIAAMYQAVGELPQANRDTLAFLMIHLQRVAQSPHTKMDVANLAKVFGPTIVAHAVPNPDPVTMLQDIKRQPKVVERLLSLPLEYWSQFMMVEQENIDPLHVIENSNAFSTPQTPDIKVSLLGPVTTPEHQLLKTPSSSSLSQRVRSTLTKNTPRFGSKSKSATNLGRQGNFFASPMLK

[7] = target: T5, Heat shock factor protein 1 (Mus musculus, UniProt P38532); test: decrease of HSF1-responsive luciferase luminescence – cell-based, NIH3T3, dose retest, confirmation (AID 2382); assay type: functional;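 further: NIH3T3 fibroblasts with HSF1-driven luciferase reporter stressed by proteasome inhibitor MG132; luminescence from HSF1-driven luciferase expression after 8 hours of MG132 stress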
T5 sequence (P38532 whole entry): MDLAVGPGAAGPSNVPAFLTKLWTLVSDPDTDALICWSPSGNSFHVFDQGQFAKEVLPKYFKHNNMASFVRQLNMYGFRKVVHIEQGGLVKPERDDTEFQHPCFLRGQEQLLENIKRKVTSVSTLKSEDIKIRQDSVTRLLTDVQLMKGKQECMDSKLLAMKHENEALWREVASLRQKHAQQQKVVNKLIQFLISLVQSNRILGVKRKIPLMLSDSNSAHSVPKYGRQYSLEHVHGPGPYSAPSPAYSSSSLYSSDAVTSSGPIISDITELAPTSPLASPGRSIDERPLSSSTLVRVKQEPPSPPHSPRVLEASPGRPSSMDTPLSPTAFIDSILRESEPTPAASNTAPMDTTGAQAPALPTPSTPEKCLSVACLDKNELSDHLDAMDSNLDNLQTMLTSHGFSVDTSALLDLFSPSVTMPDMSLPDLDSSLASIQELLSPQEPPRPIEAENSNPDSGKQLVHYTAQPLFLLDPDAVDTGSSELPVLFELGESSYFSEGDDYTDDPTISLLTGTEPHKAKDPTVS

Cytochrome P450 3A4 = Cytochrome P450 3A4 (Homo sapiens, UniProt P08684);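 further: CYP3A4 tested as one member of a cytochrome P450 panel screen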
Cytochrome P450 3A4, sequence (P08684 whole entry): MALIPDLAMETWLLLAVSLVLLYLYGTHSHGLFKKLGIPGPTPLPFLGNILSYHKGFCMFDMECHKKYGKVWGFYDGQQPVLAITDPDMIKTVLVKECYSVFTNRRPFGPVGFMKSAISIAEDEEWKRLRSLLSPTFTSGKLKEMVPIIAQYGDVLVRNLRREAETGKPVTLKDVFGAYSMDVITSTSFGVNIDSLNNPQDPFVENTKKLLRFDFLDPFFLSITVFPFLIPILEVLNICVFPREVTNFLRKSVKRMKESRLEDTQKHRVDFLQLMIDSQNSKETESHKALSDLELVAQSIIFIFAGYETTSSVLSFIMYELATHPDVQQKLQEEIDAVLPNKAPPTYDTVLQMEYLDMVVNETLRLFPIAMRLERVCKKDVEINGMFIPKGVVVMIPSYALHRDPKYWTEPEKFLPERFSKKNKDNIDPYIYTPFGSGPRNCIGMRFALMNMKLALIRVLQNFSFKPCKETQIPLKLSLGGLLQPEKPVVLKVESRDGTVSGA

SMILES: Cc1ccc2nc(Cl)c3cc(C(=O)N(CCN(C)C)Cc4ccco4)sc3c2c1
EC50 [1]: > 60 µM (not active)
EC50 [2]: 0.123 µM (active)
AC50 [3]: 1.86 µM (active)

AC50 (Cytochrome P450 1A2): 12.6 µM (inconclusive)
AC50 (Cytochrome P450 2C9): 31.6 µM (inconclusive)
SMILES: COc1ccc(C(=O)N2CCC3(CCN(Cc4ccc(C#N)cc4)CC3)CC2)cc1

EC50 [4]: 78.7 µM (active)
EC50 [5]: > 300 µM (not active)
SMILES: COC(=O)c1cc(C(=O)OC)cc(-n2c(C)cc(C=O)c2C)c1

EC50 [4]: > 300 µM (not active)
EC50 [5]: > 300 µM (not active)
SMILES: CCOC(=O)c1ccc(-n2c(C)ccc2C)cc1

IC50 [6]: 69.2 µM (active)
SMILES: COc1ccc(CN2CCN(Cc3ccco3)CC2)cc1OC

IC50 [6]: 19.8 µM (active)
SMILES: Cc1c(N=Nc2ccc(O)cc2)c(=O)n(-c2ccccc2)n1C

EC50 [7]: > 195 µM (not active)
SMILES: CCOC(=O)c1c(NC(=O)CSc2nnc(-c3c[nH]c4ccccc34)n2C)sc2c1CCCC2

SMILES: Clc1ccc(-c2nnc(-c3ccccc3)c(-c3ccccc3)n2)cc1
AC50 [3]: 10.1 µM (active)

IC50 [6]: 80.7 µM (active)
SMILES: COc1ccc(NC2CCCN(C(=O)C3(C)CCCCC3)C2)cc1 (stereo not drawn)

AC50 (Cytochrome P450 1A2): 0.631 µM (inconclusive)
AC50 (Cytochrome P450 3A4): 6.31 µM (inconclusive)
SMILES: CCC/C=C(\CCC)C(NC(=O)c1ccc(-c2ccccc2)cc1)c1ccc(C(=O)OC)cc1 (stereo not drawn)

SMILES: Cc1ccc(-c2cc(C(=O)NCc3ccc4c(c3)OCO4)no2)cc1
AC50 [3]: > 195 µM (inactive)

IC50 [6]: 58.7 µM (active)
SMILES: O=C(CNC(=O)c1ccccc1Br)N/N=C/c1ccc(O)cc1

EC50 [7]: 32.9 µM (active)
SMILES: Cc1cc(C)cc(OCC(O)CN2CC(C)OC(C)C2)c1 (stereo not drawn)

EC50 [7]: > 195 µM (not active)
SMILES: CC1(C)CC(=O)C(=NNc2ccc(OC(F)F)cc2)C(=O)C1

EC50 [4]: > 300 µM (not active)
EC50 [5]: > 300 µM (not active)
SMILES: CCOC(=O)N1CCC(NC(=O)C(Cc2ccccc2)NC(=O)C2CCCCC2)CC1 (stereo not drawn)

AC50 (Cytochrome P450 1A2): 12.6 µM (inconclusive)
SMILES: Cc1c(Nc2ncccc2C(=O)O)cccc1C(F)(F)F

EC50 [7]: > 195 µM (not active)
SMILES: Cc1nc2sc3c(NCc4ccco4)ncnc3c2c2c1COC(C)(C)C2

EC50 [7]: > 195 µM (not active)
SMILES: CCO/C(C)=C1/SC(=S)NC1=O

AC50 (Cytochrome P450 1A2): 20 µM (inconclusive)
SMILES: O=C(c1cnccn1)N1CCC[C@@]2(CCN(c3ccccn3)C2)C1

IC50 [6]: 39.7 µM (active)
SMILES: Cc1ccn2c(Nc3ccc4c(c3)OCO4)c(-c3ccc(O)cc3)nc2c1

EC50 [7]: > 195 µM (not active)
SMILES: Cc1cc(C)c(NC(=O)Nc2ccc3c(c2)OCO3)c(C)c1

EC50 [7]: > 195 µM (not active)
SMILES: COc1cccc(N(C(=O)c2cccs2)c2nc3ccccc3s2)c1

EC50 [4]: > 300 µM (not active)
EC50 [5]: > 300 µM (not active)
SMILES: CCCc1c(O)nc(SCC(=O)N2CCCCC2)nc1O

SMILES: CCCCCCSc1ccc(-c2nc3cnccn3c2NCCCC)cc1
AC50 [3]: 3.59 µM (active)

AC50 (Cytochrome P450 1A2): 5.01 µM (inconclusive)
SMILES: COc1ccc(-c2ccc(/C=C3\C(=O)N(c4ccccc4)N=C3c3ccccc3)o2)c([N+](=O)[O-])c1
